Measured values from patent US10149644B2, “Curcumin derivatives for amyloid-β plaque imaging” (The General Hospital Corporation, priority 2008, dated 2018).
“Also recorded” adds a separate entry of the source. Read-outs that look alike come from different tables or passages of the source.

What was measured:
Aβ plaques [1] = assay: Histological staining of Tg2576 mice brain slices; conditions: co-staining with Thioflavin S
Method: Tg2576 mice brain tissue was cut into 25 micron slices. The slices were fixed with 4% formalin for 5 min and washed with PBS buffer twice. For Thioflavin S staining the slices were dipped into thioflavin S solution (1.0% in 50% ethanol) for 5 min., then differentiated in 70% ethanol for 5 min., rinsed with distilled water twice and mounted using Vecta shield mounting medium. Similar procedure was used to incubate sliced tissue with our probe. Histological slide was treated with, 0.01% CRANAD-2 in 10% acetone, 40% ethanol and 50% water for 15 min. For co-staining: the procedure was similar. The slices were first stained with thioflavin S, and washed with 70% ethanol for 5 min, then stained with the solution of CRANAD-2.

senile plaques = assay: Ex vivo histological correlation; assay type: in vivo, mice; conditions: 19-month old transgenic mice, 10 mg/kg i.v.
Method: 19 month-old mouse was injected CRANAD-2 (10.0 mg/kg), and was sacrified after perfusion with 4% formaldehyde. The brain was taken and embedded in OCT. For histology, the brain was sliced into 25μ slices, and co-stained with thioflavin S as described above. To obtain ex vivo confirmation of the probe binding, mice at different ages were i.v injected with 10 mg/kg of CRANAD-2 probe, perfused and scarified at 1 h after injection.

Serum stability test = assay type: in vitro ADME, human; conditions: for recovery at 2 h, 4 μM: human, human serum, 37° C., ethyl acetate extraction
Method: CRANAD-2 (4.0 μM) was incubated at 37° C. for 2 h with 1.0 mL human serum, then ethyl acetate (4×5.0 mL) was added, stirred at room temperature for 10 min., and centrifuged to give clear organic supernatant. The ethyl acetate solution was subjected to fluorescence intensity measurement (F.I.(660 nm)=8713), and the concentration of CRANAD-2 was calculated (0.14 μM) using the equation (Y=474+61.7 X, where Y is F.I., and X is the concentration) generated from standard curve of CRANAD-2 in ethyl acetate. The recovery of CRANAD-2 was about 70%. After the fluorescence measurement, the ethyl acetate solution was concentrated to 40 μL, and 10 μL was injected for HPLC analysis. By HPLC, the recovery of CRANAD-2 was about 75%, which was close to the result from fluorescence measurement.
Since serum albumin is the most abundant plasma protein, it was important to test whether the probe had any affinity toward this protein. To test this the inventors incubated CRANAD-2 probe with BSA. For controls, the inventors used PBS buffer alone, the probe incubated in PBS alone, and with Aβ40 aggregates. […] In addition, the inventors tested CRANAD-2 stability by incubating the probe (4×10^−6M) with human serum for 2 hours at 37° C.

[2] = Log P measurement (octanol/water); assay type: physicochemical
Method: Log p measurement was performed according to the reported procedure {35}. CRANAD-2 (0.125 mM) in Octanol 2.0 mL was subjected to partition with octanol-saturated water 2.0 mL. The resulting mixture was stirred vigorously for 5 min., and centrifuged at 2,000 rpm for 5 min. The octanol layer was separated from water layer, and its fluorescence spectrum was recorded (excited at 590 nm). The above water layer was partitioned with water-saturated octanol 2.0 mL, and the octanol layer was separated after 5 min. vigorous stirring and 5 min. centrifuge at 2,000 rpm, and its spectrum was recorded. The log P value was calculated by the fluorescence intensity ratio at 690 nm for the above two octanol extractions.
In order for the probe to cross blood brain barrier, its lipophilicity (log P) should be within 2-5 range.

[3] = BBB penetration and blood/brain clearance; assay type: in vivo, Balb/c mice; conditions: 10 mg/kg i.v.
Method: To test the BBB penetrating ability of the probe, Balb/c mice were used (n=3). […] Mice were perfused with saline solution and the brains were excised at 30 min., 1 h, 2 h, and 4 h after injection. Each brain sample was homogenized with 2.0 ml water and 3.0 ml ethyl acetate, and the homogenate was centrifuged for 5 min at 2,500 rpm. The fluorescence intensities of the ethyl acetate supernatant were recorded. The actual amounts (pmol) of the extracted probe were calculated according to the standard curve of CRANAD-2 in ethyl acetate.
Prior to perfusion, blood samples were taken at each time point to monitor the probe blood clearance. The blood samples were diluted with PBS buffer to 1.0 mL, followed by ethyl acetate (2.0 mL) extraction. The extractions were subjected to fluorescence intensity measurement, and the actual amounts of the probe for each mouse were calculated as the procedure for brain extraction described above.
In addition, to follow the probe clearance the inventors drew blood samples at each time point. […] LC-MS results also confirmed that the major component of the ethyl acetate extraction was CRANAD-2.

Aβ40 aggregates [4] = biological target: T1, Aβ40 aggregates (Homo sapiens, UniProt P05067); assay: Fluorescence response of probe to Aβ40 aggregates, Aβ40 monomer and PBS; assay type: binding
T1 construct: Synthetic amyloid-b protein (1-40) was purchased from rPeptide; purchased rPeptide (Bogart, Ga.)
T1 sequence (P05067 672-711 limits assumed): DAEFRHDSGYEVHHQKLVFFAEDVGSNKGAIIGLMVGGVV
Excerpt: We compared the fluorescence intensity of CRANAD-2 with PBS (pH 7.4), Aβ40 peptide, and Aβ40 aggregates generated from Cu^2+ induced aggregation.

Aβ plaques [5] = assay: AD tissue staining of APP-PS1 brain sections; conditions: 25 micron sections, 12-month old APP-PS1 mice
Excerpt: The inventors conducted tissue staining with 25 micron brain sections from 12-month old APP-PS1 mice by all the compounds listed in FIG. 12.

Aβ40 aggregates [6] = biological target: T1, Aβ40 aggregates; assay: In vitro Aβ aggregates binding constant measurement
Method: […] The Kd binding curve was generated by software Prism 3.0 with nonlinear one-site binding regression.
Binding constant (Kd) of CRANAD-2 towards Aβ aggregates was measured by fluorescence intensity (F.I.) with various concentrations of the prob.

Aβ40 aggregates [7] = biological target: T1, Aβ40 aggregates; assay: Aβ aggregates detection in solution by fluorescence spectrum; assay type: binding; conditions: 250 nM compound, 250 nM Aβ40 aggregates, PBS, one minute
Method: They then incubated 250 nM of the compounds with 250 nM of Aβ40 aggregates (calculation based on monomer) in PBS for one minute, and then measured the fluorescence spectra of the solutions.

CN(C)c1ccc(/C=C/C2=CC(/C=C/c3ccc(N(C)C)cc3)=[O+][B-](F)(F)O2)cc1 [CRANAD-2]
Staining of Aβ plaques in brain tissue (Aβ plaques [1]): specificity towards Aβ plaques; also recorded: specific staining with Aβ plaques | Labelling of senile plaques ex vivo after i.v. injection (senile plaques): senile plaques were observed | Stability in serum in vitro (Serum stability test): considerable stability in serum | recovery at 2 h, 4 μM (Serum stability test; read-out: Recovery after serum incubation, by HPLC): ~75% | recovery at 2 h, 4 μM (Serum stability test; read-out: Recovery after serum incubation, by fluorescence): ~70% | logP [2]: 3 | Clearance from blood [3]: rapid clearance from blood | Clearance from the brain vs blood [3]: significantly slower | BBB penetrating ability ([3]; brain homogenate, fluorescence, HPLC, LC-MS): capability to cross BBB | Fluorescence intensity with Aβ40 peptide monomer vs PBS (Aβ40 aggregates [4]; Aβ40 monomer): did not observe any significant difference | Quantum yield in PBS buffer (Aβ40 aggregates [4]; PBS buffer): 0.6% | Quantum yield in PBS (Aβ40 aggregates [4]; PBS, given as fraction): 0.006 | Quantum yield after binding to Aβ40 aggregates (Aβ40 aggregates [4]; bound to Aβ40 aggregates, given as fraction): 0.40 | Quantum yield upon binding to aggregates (Aβ40 aggregates [4]; bound to aggregates): 40% | Fluorescence intensity increase in the presence of Aβ40 aggregates (Aβ40 aggregates [4]; vs PBS): 70 fold | Staining of plaques in brain sections (Aβ plaques [5]): good staining | Staining of plaques in brain sections (Aβ plaques [5]; listed as CRANAD2): stained the plaques brightly | Affinity to Aβ aggregates (Aβ40 aggregates [6]): high affinity to Aβ aggregates | Kd (Aβ40 aggregates [6]; Aβ40 aggregates in PBS, fluorescence intensity, nonlinear one-site regression, read-out: Binding constant (Kd) towards Aβ aggregates): 0.0387 ± 0.00277 µM | Fluorescence intensity change with Aβ40 aggregates (Aβ40 aggregates [7]): intensity increases | Wavelength shift with Aβ40 aggregates (Aβ40 aggregates [7]): wavelength blue-shifts
